Source: patent US20240336638A1, “IMIDAZOLE COMPOUND, AND INTERMEDIATE AND APPLICATION THEREOF” (priority 2021, published 2024)
Read-outs that look alike come from different tables or passages of the source.

Experiments:
MCAO/R rats = assay: Therapeutic administration (i.v.) in middle cerebral artery occlusion/reperfusion (MCAO/R) rats; assay type: in vivo, rat; conditions: for Bleeding time / Brain water content (%) / Cerebral infarction rate (%) / Clotting time / Neurological function score: once a day for 3 days, mean ± SD, n = 8; for Neurological function score: modified Bederson score
Protocol: Male SD rats weighing 250 to 300 g were taken, and the rats in each group fasted for 12 hours before modeling, while water was not restricted. According to the method of Longa et al.^[1], a rat model of MCAO/R was established by occluding the blood flow of internal carotid artery using the thread embolization method. The rats were anesthetized with 3% chloral hydrate (300 mg/kg, 1 mL/100 g body weight) through intraperitoneal injection and fixed in the supine position on the operating table. A midline incision was made in the neck, and the right common carotid artery was isolated using forceps and threaded for later use. The external and internal carotid arteries were isolated from the bifurcation of the common carotid artery. A single thread was threaded through the internal carotid artery, and two threads were threaded through the external carotid artery. Both distal and proximal ends were ligated, and the middle part of the ligation site was cut using ophthalmic scissors. The proximal main trunk of the external carotid artery was isolated and reserved for later use. The prepared cotton thread was used to half-ligate the common carotid artery (tying a slipknot), and the thread prepared for the internal carotid artery was tightened with hemostatic forceps, temporarily occluding the blood flow of the internal carotid artery. A small incision at the proximal main trunk of the external carotid artery was made using ophthalmic scissors, and then, the fishing line was held with straight forceps, inserted from this incision, and slowly advanced through the isolated proximal main trunk of the external carotid artery towards the intracranial direction of the internal carotid artery. The advancement was stopped at a predetermined position, and then the thread of the internal carotid artery that was tightened with the hemostatic forceps was loosened. […] Another thread was threaded and tightened around the proximal main trunk of the external carotid artery and the fishing line that had already been inserted into the predetermined position. The half-ligated thread on the common carotid artery was then loosened, and the skin was subsequently sutured. After 2 hours of ischemia, a small section of the fishing line was pulled out. […] After rats in the blank control group were anesthetized, only the bifurcation of the internal and external carotid arteries was exposed without the occlusion of the MCA.
Successfully modeled rats (neurological function score of 3 after reperfusion) were taken and divided into 20 groups (8 rats for each) according to the random number table method. The groups were divided into a model control group, three dose groups (high, 12 mg/kg, 2.4 mg/mL; medium, 6 mg/kg, 1.2 mg/mL; low, 3 mg/kg, 0.6 mg/mL) for each of the six test compounds, and a positive drug Ozagrel group (6 mg/kg, 1.2 mg/mL), respectively. Both blank and model control groups were administered equal volumes of mixed solvents, and the rats in each group were administered by tail vein injection (i.v.) 2 hours after reperfusion, once a day for 3 consecutive days, with a volume of 0.5 mL/100 g body weight.
Ten minutes after the last administration, the neurological function of the animals was graded according to the modified Bederson scoring method. The standard is as follows[2]: • 0 point: no neurological symptoms; • 1 point: when the rat is suspended by lifting its tail, the forelimb on the surgical side of the rat was flexed and pressed against the chest wall; • 2 points: on a smooth plane, when the rat is pushed from the surgical side to the opposite side, the resistance is less than when it is moved to the same side; • 3 points: the animal moves around or in circles when moving freely; • 4 points: flaccid paralysis, no spontaneous movement of limbs.
After Bederson scoring, the rats were executed by cervical dislocation, and the whole brain was removed and weighed. After weighing, the whole brain was placed in a −20° C. refrigerator for 20 minutes. […]

[1] = Blood-brain barrier (BBB) study in SD rats after single IV and PO administration, brain; assay type: in vivo; conditions: for Cmax / Tmax / half-life / MRT last / MRT inf: Sprague-Dawley (SD); for Cmax / Tmax / half-life / MRT last / MRT inf / AUC(0−t) / AUC(0−∞): rat brain; for MRT last: read-out: MRT(0−t); for MRT inf: read-out: MRT(0−∞); for T1/2 and AUC(0-∞) in the brain tissue: compared to Ozagrel
Protocol: Effect Example 3: Pharmacokinetic and blood-brain barrier (BBB) studies of compounds after single intravenous (IV) and oral (PO) administration in SD rats
(§1) The experimental method of administration by gavage injection in rats: SD rats weighing 180 to 220 g were fasted for 12 hours prior to the experiment, with free access to water. After administration, food and water were withheld for 4 hours. After this 4-hour period, the rats were allowed free access to water, and food was provided after 8 hours. The drugs were administered at a set dose. N=3, blood samples were taken before administration, and 5 minutes, 0.25 hours, 0.5 hours, 0.75 hours, 1 hour, 2 hours, 4 hours, 8 hours, and 24 hours after administration, respectively, and placed into sodium heparin anticoagulant tubes. The tubes were centrifuged for 1 hour at 4° C. and at 8000 rpm for 5 minutes, and the plasma was then separated and stored in centrifuge tubes at −70° C. for analysis.
as §1, with “of intravenous” for “of”, “to” for “by gavage injection in”
The plasma concentration-time data were processed using the Phoenix® WinNonlin® 8.0 program to calculate pharmacokinetic parameters.
Among them, Cmax and Tmax are measured values, the elimination rate constant k of the tail section of the C-t curve is obtained from the linear regression of LnC-t, and the value of AUC0-4 is calculated by the trapezoidal area method, and the area under the curve from 0 to ∞ time is AUC=AUC0-4+Ct/k.

[2] = medium dose 6 mg/kg i.v. (Ozagrel group 6 mg/kg)

Structure (SMILES)	Bleeding time (MCAO/R rats; high dose 12 mg/kg i.v.) [s]	Brain water content (%) (MCAO/R rats; high dose 12 mg/kg i.v.)	Cerebral infarction rate (%) (MCAO/R rats; high dose 12 mg/kg i.v.)	Clotting time (MCAO/R rats; high dose 12 mg/kg i.v.) [s]	Neurological function score (MCAO/R rats; high dose 12 mg/kg i.v.)	Bleeding time (MCAO/R rats; low dose 3 mg/kg i.v.) [s]	Brain water content (%) (MCAO/R rats; low dose 3 mg/kg i.v.)	Cerebral infarction rate (%) (MCAO/R rats; low dose 3 mg/kg i.v.)	Clotting time (MCAO/R rats; low dose 3 mg/kg i.v.) [s]	Neurological function score (MCAO/R rats; low dose 3 mg/kg i.v.)	Bleeding time (MCAO/R rats; [2]) [s]	Brain water content (%) (MCAO/R rats; [2])	Cerebral infarction rate (%) (MCAO/R rats; [2])	Clotting time (MCAO/R rats; [2]) [s]	Neurological function score (MCAO/R rats; [2])	Cmax ([1]; IV 1 mg/kg) [ng/g]	Tmax ([1]; IV 1 mg/kg) [h]	half-life ([1]; IV 1 mg/kg) [h]	MRT last ([1]; IV 1 mg/kg) [h]	MRT inf ([1]; IV 1 mg/kg) [h]	also measured
O=C(O)[C@@H]1C[C@H]1c1ccc(Cn2cnc(F)c2)cc1F [Compound 17, (1R,2R)-2-(2-Fluoro-4-((4-fluoro-1H-imidazol-1-yl)methyl)phenyl)cyclopropane-1-carboxylic acid]	338.38	80.34 ± 1.65	17.37	163.00 ± 29.03	1.63 ± 0.74	290.75 ± 79.23	82.47 ± 3.03	30.61 ± 5.72	141.25 ± 28.04	2.25 ± 0.71	307.50 ± 64.66	81.96 ± 2.16	22.75	155.00 ± 29.81	1.88 ± 0.83	84.1	0.08	3.72	2.53	4.7	cerebral edema in rats (MCAO/R rats; low and medium doses): did not significantly improve; Cmax ([1]; PO 6 mg/kg): 323 ng/g; Tmax ([1]; PO 6 mg/kg): 2 h; half-life ([1]; PO 6 mg/kg): 2.82 h; MRT last ([1]; PO 6 mg/kg): 4.53 h; MRT inf ([1]; PO 6 mg/kg): 4.6 h; T1/2 and AUC(0-∞) in the brain tissue ([1]; intravenously at 1 mg/kg): significantly increased; T1/2 and AUC(0-∞) in the brain tissue ([1]; orally at 6 mg/kg): significantly increased; AUC(0−t) ([1]; IV 1 mg/kg): 169.74 ng·h/g; AUC(0−∞) ([1]; IV 1 mg/kg): 212.39 ng·h/g; AUC(0−t) ([1]; PO 6 mg/kg): 2329.55 ng·h/g; AUC(0−∞) ([1]; PO 6 mg/kg): 2336.46 ng·h/g
O=C(O)[C@@H]1C[C@H]1c1ccc(Cn2cnc(F)c2)c(Cl)c1 [Compound 18, (1R,2R)-2-(3-Chloro-4-((4-fluoro-1H-imidazol-1-yl)methyl)phenyl)cyclopropane-1-carboxylic acid]	330.25 ± 50.14	80.54 ± 1.62	17.78	147.25 ± 13.30	1.63 ± 0.52	267.38 ± 50.19	80.64 ± 2.21	26.58 ± 4.57	152.38 ± 28.67	2.25 ± 0.46	271.63 ± 40.55	80.95 ± 1.79	20.75	158.19 ± 19.62	1.88 ± 0.83	75.5	0.08	8.7	7.19	11.5	Cmax ([1]; PO 6 mg/kg): 460 ng/g; Tmax ([1]; PO 6 mg/kg): 1 h; half-life ([1]; PO 6 mg/kg): 8.36 h; MRT last ([1]; PO 6 mg/kg): 7.84 h; MRT inf ([1]; PO 6 mg/kg): 11.7 h; T1/2 and AUC(0-∞) in the brain tissue ([1]; intravenously at 1 mg/kg): significantly increased; T1/2 and AUC(0-∞) in the brain tissue ([1]; orally at 6 mg/kg): significantly increased; AUC(0−t) ([1]; IV 1 mg/kg): 633.23 ng·h/g; AUC(0−∞) ([1]; IV 1 mg/kg): 741.29 ng·h/g; AUC(0−t) ([1]; PO 6 mg/kg): 6454.78 ng·h/g; AUC(0−∞) ([1]; PO 6 mg/kg): 7477.48 ng·h/g
